Measurements: the NIST ThermoML archive (doi:10.1016/j.fluid.2016.02.004)
Numbers after ± are expanded uncertainties.

Assay: activity coefficient (dimensionless); of the first substance listed, at infinite dilution; xn = mol fraction of the nth substance listed
Conditions: Liquid, Chromatography, x1 = 0

Compound | activity coefficient (318.15 K) | activity coefficient (328.15 K) | activity coefficient (338.15 K) | activity coefficient (348.15 K) | activity coefficient (358.15 K) | activity coefficient (368.15 K)
Cc1ccccc1C [1,2-dimethylbenzene] + CCCCn1cc[n+](C)c1.N#CN=C=[N-] | 3.82 ± 0.26 | 3.97 ± 0.27 | 4.12 ± 0.28 | 4.27 ± 0.29 | 4.42 ± 0.3 | 4.57 ± 0.31
Cc1cccc(C)c1 [1,3-dimethylbenzene] + CCCCn1cc[n+](C)c1.N#CN=C=[N-] | 4.65 ± 0.32 | 4.82 ± 0.33 | 5.03 ± 0.34 | 5.19 ± 0.35 | 5.38 ± 0.37 | 5.56 ± 0.38
Cc1ccc(C)cc1 [1,4-dimethylbenzene] + CCCCn1cc[n+](C)c1.N#CN=C=[N-] | 4.44 ± 0.3 | 4.62 ± 0.31 | 4.82 ± 0.33 | 5 ± 0.34 | 5.18 ± 0.35 | 5.37 ± 0.37
C1COCCO1 [1,4-dioxane] + CCCCn1cc[n+](C)c1.N#CN=C=[N-] | 1.06 ± 0.07 | 1.13 ± 0.07 | 1.21 ± 0.08 | 1.28 ± 0.08 | 1.36 ± 0.09 | 1.43 ± 0.09
C#CCCCC [1-hexyne] + CCCCn1cc[n+](C)c1.N#CN=C=[N-] | 5.43 ± 0.37 | 5.76 ± 0.39 | 6.12 ± 0.42 | 6.49 ± 0.44 | 6.85 ± 0.47 | 7.23 ± 0.49
CCC[N+](=O)[O-] [1-nitropropane] + CCCCn1cc[n+](C)c1.N#CN=C=[N-] | 1.26 ± 0.08 | 1.31 ± 0.09 | 1.36 ± 0.09 | 1.41 ± 0.09 | 1.45 ± 0.1 | 1.5 ± 0.1
C#CCCCCCC [1-octyne] + CCCCn1cc[n+](C)c1.N#CN=C=[N-] | 12.5 ± 0.9 | 13 ± 0.9 | 13.4 ± 0.9 | 13.9 ± 1 | 14.4 ± 1 | 14.8 ± 1
CCC(C)(C)C [2,2-dimethylbutane] + CCCCn1cc[n+](C)c1.N#CN=C=[N-] | 53.6 ± 3.7 | 51.7 ± 3.5 | 50.1 ± 3.4 | 48.7 ± 3.3 | 47.4 ± 3.2 | 46 ± 3.1
CCOC(C)(C)C [2-ethoxy-2-methylpropane] + CCCCn1cc[n+](C)c1.N#CN=C=[N-] | 18.1 ± 1.2 | 18.4 ± 1.3 | 18.7 ± 1.3 | 19.1 ± 1.3 | 19.3 ± 1.3 | 19.7 ± 1.3
CCC(C)(C)OC [2-methoxy-2-methylbutane] + CCCCn1cc[n+](C)c1.N#CN=C=[N-] | 10.7 ± 0.7 | 11.1 ± 0.8 | 11.5 ± 0.8 | 11.8 ± 0.8 | 12.2 ± 0.8 | 12.5 ± 0.9
CCC(C)CC [3-methylpentane] + CCCCn1cc[n+](C)c1.N#CN=C=[N-] | 53.7 ± 3.7 | 51.7 ± 3.5 | 50 ± 3.4 | 48.4 ± 3.3 | 47.1 ± 3.2 | 45.6 ± 3.1
C=C(C)c1ccccc1 [(1-methylethenyl)benzene] + CCCCn1cc[n+](C)c1.N#CN=C=[N-] | 3.3 ± 0.2 | 3.53 ± 0.24 | 3.79 ± 0.26 | 4.02 ± 0.27 | 4.26 ± 0.29 | 4.51 ± 0.31
CC(C)=O [acetone] + CCCCn1cc[n+](C)c1.N#CN=C=[N-] | 1 ± 0.06 | 1.05 ± 0.07 | 1.11 ± 0.07 | 1.16 ± 0.07 | 1.22 ± 0.08 | 1.27 ± 0.08
CCCC=O [butanal] + CCCCn1cc[n+](C)c1.N#CN=C=[N-] | 1.61 ± 0.11 | 1.67 ± 0.11 | 1.74 ± 0.12 | 1.8 ± 0.12 | 1.87 ± 0.13 | 1.93 ± 0.13
C1CCCCCC1 [cycloheptane] + CCCCn1cc[n+](C)c1.N#CN=C=[N-] | 32.6 ± 2.2 | 31.2 ± 2.1 | 30.1 ± 2.1 | 29.1 ± 2 | 28.1 ± 1.9 | 27.3 ± 1.9
C1CCCCC1 [cyclohexane] + CCCCn1cc[n+](C)c1.N#CN=C=[N-] | 25.8 ± 1.8 | 25 ± 1.7 | 24.3 ± 1.7 | 23.7 ± 1.6 | 23.1 ± 1.6 | 22.6 ± 1.5
C1CCCCCCC1 [cyclooctane] + CCCCn1cc[n+](C)c1.N#CN=C=[N-] | 42.4 ± 2.9 | 40.4 ± 2.8 | 38.6 ± 2.6 | 37.1 ± 2.5 | 35.8 ± 2.4 | 34.5 ± 2.4
CCOCC [diethyl ether] + CCCCn1cc[n+](C)c1.N#CN=C=[N-] | 6.88 ± 0.47 | 7.11 ± 0.48 | 7.32 ± 0.5 | 7.53 ± 0.51 | 7.74 ± 0.53 | 7.95 ± 0.54
CC(C)OC(C)C [diisopropyl ether] + CCCCn1cc[n+](C)c1.N#CN=C=[N-] | 20.6 ± 1.4 | 20.9 ± 1.4 | 21.2 ± 1.4 | 21.5 ± 1.5 | 21.8 ± 1.5 | 22 ± 1.5

Further lines, results first:

activity coefficient (318.15 K) | activity coefficient (328.15 K) | activity coefficient (338.15 K) | activity coefficient (348.15 K) | activity coefficient (358.15 K) | activity coefficient (368.15 K) | Compound
134 ± 9 | 128 ± 9 | 123 ± 8 | 119 ± 8 | 115 ± 8 | 111 ± 8 | C=CCCCCCCCC [1-decene] + CCCCn1cc[n+](C)c1.N#CN=C=[N-]
39 ± 2.7 | 38.5 ± 2.6 | 38.1 ± 2.6 | 37.7 ± 2.6 | 37.3 ± 2.6 | 37 ± 2.5 | C=CCCCCC [1-heptene] + CCCCn1cc[n+](C)c1.N#CN=C=[N-]
8.24 ± 0.56 | 8.61 ± 0.59 | 9.02 ± 0.62 | 9.42 ± 0.64 | 9.77 ± 0.67 | 10.2 ± 0.7 | C#CCCCCC [1-heptyne] + CCCCn1cc[n+](C)c1.N#CN=C=[N-]
17.3 ± 1.2 | 17.3 ± 1.2 | 17.3 ± 1.2 | 17.3 ± 1.2 | 17.3 ± 1.2 | 17.3 ± 1.2 | C=CCCC [1-pentene] + CCCCn1cc[n+](C)c1.N#CN=C=[N-]
3.7 ± 0.3 | 3.94 ± 0.27 | 4.16 ± 0.28 | 4.38 ± 0.3 | 4.6 ± 0.3 | 4.84 ± 0.33 | C#CCCC [1-pentyne] + CCCCn1cc[n+](C)c1.N#CN=C=[N-]
111 ± 8 | 105 ± 7 | 101 ± 7 | 96.5 ± 6.6 | 92.8 ± 6.4 | 89.2 ± 6.1 | CC(C)CC(C)(C)C [2,2,4-trimethylpentane] + CCCCn1cc[n+](C)c1.N#CN=C=[N-]
7.13 ± 0.49 | 7.47 ± 0.51 | 7.8 ± 0.53 | 8.14 ± 0.56 | 8.46 ± 0.58 | 8.8 ± 0.6 | COC(C)(C)C [2-methoxy-2-methylpropane] + CCCCn1cc[n+](C)c1.N#CN=C=[N-]
1.08 ± 0.07 | 1.08 ± 0.07 | 1.09 ± 0.07 | 1.09 ± 0.07 | 1.09 ± 0.07 | 1.09 ± 0.07 | CC(C)CO [2-methyl-1-propanol] + CCCCn1cc[n+](C)c1.N#CN=C=[N-]
1.11 ± 0.07 | 1.14 ± 0.07 | 1.16 ± 0.07 | 1.19 ± 0.08 | 1.21 ± 0.08 | 1.24 ± 0.08 | CC(C)(C)O [2-methylpropan-2-ol] + CCCCn1cc[n+](C)c1.N#CN=C=[N-]
0.781 ± 0.051 | 0.813 ± 0.053 | 0.844 ± 0.054 | 0.876 ± 0.056 | 0.904 ± 0.057 | 0.934 ± 0.059 | CC#N [acetonitrile] + CCCCn1cc[n+](C)c1.N#CN=C=[N-]
1.87 ± 0.13 | 1.95 ± 0.13 | 2.03 ± 0.14 | 2.11 ± 0.14 | 2.19 ± 0.15 | 2.28 ± 0.16 | c1ccccc1 [benzene] + CCCCn1cc[n+](C)c1.N#CN=C=[N-]
1.1 ± 0.07 | 1.11 ± 0.07 | 1.12 ± 0.07 | 1.13 ± 0.07 | 1.14 ± 0.07 | 1.15 ± 0.07 | CCCCO [butan-1-ol] + CCCCn1cc[n+](C)c1.N#CN=C=[N-]
1.13 ± 0.07 | 1.14 ± 0.07 | 1.16 ± 0.07 | 1.17 ± 0.07 | 1.18 ± 0.08 | 1.19 ± 0.08 | CCC(C)O (stereo unspecified) [butan-2-ol] + CCCCn1cc[n+](C)c1.N#CN=C=[N-]
11.4 ± 0.8 | 11.4 ± 0.8 | 11.3 ± 0.8 | 11.3 ± 0.8 | 11.3 ± 0.8 | 11.3 ± 0.8 | C1=CCCCC1 [cyclohexene] + CCCCn1cc[n+](C)c1.N#CN=C=[N-]
17.4 ± 1.2 | 16.9 ± 1.2 | 16.3 ± 1.1 | 15.9 ± 1.1 | 15.5 ± 1.1 | 15.1 ± 1 | C1CCCC1 [cyclopentane] + CCCCn1cc[n+](C)c1.N#CN=C=[N-]
314 ± 22 | 285 ± 20 | 260 ± 18 | 239 ± 16 | 221 ± 15 | 205 ± 14 | CCCCCCCCCC [decane] + CCCCn1cc[n+](C)c1.N#CN=C=[N-]
20.4 ± 1.4 | 20.5 ± 1.4 | 20.5 ± 1.4 | 20.5 ± 1.4 | 20.5 ± 1.4 | 20.6 ± 1.4 | CCCOCCC [dipropyl ether] + CCCCn1cc[n+](C)c1.N#CN=C=[N-]
